How the values were obtained:
Assay type in all cases: functional
NCI-H522 = assay: Growth inhibition of human NCI-H522 cells after 48 hrs by sulforhodamine B assay; conditions: NCI-H522, 48 h
A549 = assay: Growth inhibition of human A549/ATCC cells after 48 hrs by sulforhodamine B assay; conditions: A549, 48 h
NCI-H460 = assay: Growth inhibition of human NCI-H460 cells after 48 hrs by sulforhodamine B assay; conditions: NCI-H460, 48 h
[1] = Growth inhibition of human MOLT4 cells after 48 hrs by sulforhodamine B assay; conditions: MOLT-4, 48 h
[2] = Growth inhibition of human LOXIMVI cells after 48 hrs by sulforhodamine B assay; conditions: LOX IMVI
COLO 205 = assay: Growth inhibition of human COLO205 cells after 48 hrs by sulforhodamine B assay; conditions: COLO 205, 48 h
HCT-116 = assay: Growth inhibition of human HCT116 cells after 48 hrs by sulforhodamine B assay; conditions: HCT-116, 48 h
Malme-3M = assay: Growth inhibition of human MALME-3M cells after 48 hrs by sulforhodamine B assay
A498 = assay: Growth inhibition of human A498 cells after 48 hrs by sulforhodamine B assay; conditions: A498, 48 h
SW-620 = assay: Growth inhibition of human SW620 cells after 48 hrs by sulforhodamine B assay; conditions: SW-620, 48 h
HOP-62 = assay: Growth inhibition of human HOP62 cells after 48 hrs by sulforhodamine B assay; conditions: HOP-62, 48 h
SK-OV-3 = assay: Growth inhibition of human SKOV3 cells after 48 hrs by sulforhodamine B assay; conditions: SK-OV-3, 48 h
[3] = read-out: LC50 (the source's name)
[4] = read-out: pLC50 (the source's name) (converted)

## Nc1nc(-c2ccccc2Cl)cc(-c2ccc(Cl)cc2Cl)n1
NCI-H522; read-out: GI50
  GI50: 3.27 µM
NCI-H522; [3]
  CC50: > 100 µM
NCI-H522; read-out: TGI
  TGI: 23.3 µM
NCI-H522; read-out: pGI50 (converted)
  GI50: 3.31 µM
NCI-H522; [4]
  CC50: > 100 µM
NCI-H522; read-out: pTGI (converted)
  TGI: 23.4 µM
A549; read-out: GI50
  GI50: 4.81 µM
A549; [3]
  CC50: > 100 µM
A549; read-out: TGI
  TGI: > 100 µM
A549; read-out: pGI50 (converted)
  GI50: 4.79 µM
A549; [4]
  CC50: > 100 µM
A549; read-out: pTGI
  TGI: > 100 µM
NCI-H460; read-out: GI50
  GI50: 3.31 µM
NCI-H460; [3]
  CC50: > 100 µM
NCI-H460; read-out: TGI
  TGI: 23.1 µM
NCI-H460; read-out: pGI50 (converted)
  GI50: 3.31 µM
NCI-H460; [4]
  CC50: > 100 µM
NCI-H460; read-out: pTGI (converted)
  TGI: 22.9 µM
[1]; read-out: GI50
  GI50: 4.82 µM
[1]; [3]
  CC50: > 100 µM
[1]; read-out: TGI
  TGI: > 100 µM
[1]; read-out: pGI50 (converted)
  GI50: 4.79 µM
[1]; [4]
  CC50: > 100 µM
[1]; read-out: pTGI
  TGI: > 100 µM
[2]; read-out: GI50
  GI50: 4.89 µM
[2]; [3]
  CC50: > 100 µM
[2]; read-out: TGI
  TGI: > 100 µM
[2]; read-out: pGI50 (converted)
  GI50: 4.9 µM
[2]; [4]
  CC50: > 100 µM
[2]; read-out: pTGI
  TGI: > 100 µM
COLO 205; read-out: GI50
  GI50: 3.52 µM
COLO 205; [3]
  CC50: 53 µM
COLO 205; read-out: TGI
  TGI: 15.5 µM
COLO 205; read-out: pGI50 (converted)
  GI50: 3.55 µM
COLO 205; [4]
  CC50: 52.5 µM
COLO 205; read-out: pTGI (converted)
  TGI: 15.5 µM
HCT-116; read-out: GI50
  GI50: 4.27 µM
HCT-116; [3]
  CC50: > 100 µM
HCT-116; read-out: TGI
  TGI: > 100 µM
HCT-116; read-out: pGI50 (converted)
  GI50: 4.27 µM
HCT-116; [4]
  CC50: > 100 µM
HCT-116; read-out: pTGI
  TGI: > 100 µM
Malme-3M; read-out: GI50
  GI50: 17.7 µM
Malme-3M; [3]
  CC50: > 100 µM
Malme-3M; read-out: TGI
  TGI: > 100 µM
Malme-3M; read-out: pGI50 (converted)
  GI50: 17.8 µM
Malme-3M; [4]
  CC50: > 100 µM
Malme-3M; read-out: pTGI
  TGI: > 100 µM
A498; read-out: GI50
  GI50: 3.34 µM
A498; [3]
  CC50: > 100 µM
A498; read-out: TGI
  TGI: 22.8 µM
A498; read-out: pGI50 (converted)
  GI50: 3.31 µM
A498; [4]
  CC50: > 100 µM
A498; read-out: pTGI (converted)
  TGI: 22.9 µM
SW-620; read-out: GI50
  GI50: 3.41 µM
SW-620; [3]
  CC50: > 100 µM
SW-620; read-out: TGI
  TGI: > 100 µM
SW-620; read-out: pGI50 (converted)
  GI50: 3.39 µM
SW-620; [4]
  CC50: > 100 µM
SW-620; read-out: pTGI
  TGI: > 100 µM
HOP-62; read-out: GI50
  GI50: 8.21 µM
HOP-62; [3]
  CC50: > 100 µM
HOP-62; read-out: TGI
  TGI: > 100 µM
HOP-62; read-out: pGI50 (converted)
  GI50: 8.13 µM
HOP-62; [4]
  CC50: > 100 µM
HOP-62; read-out: pTGI
  TGI: > 100 µM
SK-OV-3; read-out: GI50
  GI50: 10.1 µM
SK-OV-3; [3]
  CC50: > 100 µM
SK-OV-3; read-out: TGI
  TGI: 62.3 µM
SK-OV-3; read-out: pGI50 (converted)
  GI50: 10 µM
SK-OV-3; [4]
  CC50: > 100 µM
SK-OV-3; read-out: pTGI (converted)
  TGI: 61.7 µM

Source: ChEMBL document CHEMBL3286379, “Design and synthesis of pyrimidine molecules endowed with thiazolidin-4-one as new anticancer agents” (Eur J Med Chem, 2014)
